Reference: paper PMC8464939, “Epicatechin Gallate as Xanthine Oxidase Inhibitor: Inhibitory Kinetics, Binding Characteristics, Synergistic Inhibition, and Action Mechanism” (Foods, 2021)
Where two headings read alike, the source gives them in different places. One block for each molecule: values may come before it.

How the values were obtained:
XO = settings: cited from earlier work
polyphenoloxidase = tested on: polyphenoloxidase; set-up: method as in earlier work; settings: ref 41 (Sae-Leaw et al.); cited from earlier work
xanthine oxidase (XO) [1] = molecular target: T1, xanthine oxidase (XO) (Bos taurus, UniProt P80457); assay: XO activity assay (uric acid formation, absorbance at 293 nm); format: biochemical, bovine
xanthine oxidase (XO) [2] = molecular target: T1, xanthine oxidase (XO); assay: CD spectra: secondary structure of XO; set-up: species or system bovine
Protocol: The CD spectrometer (Bio−Logic MOS 450, Claix, France) was used to determine the CD spectra to analyze the effects of ECG on the secondary structure of XO. The free XO (1.0 μM) and its mixed solutions with different molar ratios ([ECG]/[XO], 0:1, 10:1, 20:1 and 40:1) were prepared, and then the CD spectra of the samples in the range of 190−250 nm were measured in a nitrogen stream. The specific secondary structure contents were analyzed by our previous study.

[3] = DPPH radical scavenging activity assay; settings: ECG 15 μM
Protocol: The DPPH free radical scavenging activity of ECG was tested according to Aalim et al. with slight modification. DPPH was dissolved in ethanol, and then different concentrations of ECG were added to prepare a series of samples. The mixed solutions were protected from light and reacted for 30 min. The absorbance of the samples at 517 nm was determined by an enzyme-labeled instrument (Varioskan LUX, Thermo Fisher Scientific, Waltham, MA, USA). An equal volume of ethanol was used as a control. The free radical scavenging activity of ECG was assessed by the change of percentage in absorbance.

xanthine oxidase (XO) [4] = molecular target: T1, xanthine oxidase (XO); assay: Fluorescence titration experiments (quenching, binding, thermodynamics, 3D fluorescence); set-up: species or system bovine
Protocol: At three experimental temperatures (25, 31, and 37 °C), XO (1.0 μM) diluted in the Tris–HCl solution was placed in a 1.0 cm cuvette, and then ECG (0–30.0 μM) was added into XO solution successively to conduct the fluorescence titration experiments. After each addition, the fluorescence spectra of the mixed solutions within 300–500 nm were scanned at an excitation wavelength of 280 nm using a fluorescence photometer (F–7000, Hitachi, Japan). The width of the excitation and emission slit was 2.5 nm, respectively. Similarly, the synchronous fluorescence spectra of XO titrated by ECG were measured by setting the difference between excitation and emission wavelength (Δλem) to 15 and 60 nm, respectively. The free XO solution and a mixed sample of XO and ECG were prepared, and then the three-dimensional (3D) fluorescence spectra of the samples were determined; the scanning ranges of both excitation and emission wavelength were 200–600 nm. All fluorescence data were corrected to subtract the internal filtering effect by the following equation [34]:(4) Fc=Fme^(A1+A2)/2 where Fc and Fm represent the […] fluorescence intensity values, respectively; A1 and A2 are the absorbances of ECG at the excitation and emission wavelengths, respectively.
The changes of fluorescence spectra can reflect the binding characteristics between inhibitor and enzyme. […] The specific quenching mechanism of ECG on XO was determined by the relationship between quenching constant (KSV) and temperature, and the values of KSV and Kq (the quenching rate constant) were calculated by the well-known Stern–Volmer equation [44]. (6) F0/F=1+KSVQ=1+Kqτ0Q where F and F0 represent the fluorescence intensity values of XO with and without ECG, respectively; Q is the concentration of ECG; the value of the average fluorescence lifetime of fluorophore for biomacromolecules (τ0) is 10^−8 s. […] Furthermore, the binding constant (Ka) and the number of binding sites (n) were calculated through the following formula:(7) logF0−F/F=nlogKa−nlog1/Qt−(F0−F)Pt/F0 where [Qt] and [Pt] represent the concentrations of ECG and XO, respectively. […] The n values were close to 1, reflecting that XO had only one class of binding sites for ECG, which was consistent with the conclusions of enzyme kinetics analysis.
The values of thermodynamic parameters of the binding process between ECG and XO, such as entropy change (ΔS°), enthalpy change (ΔH°), and free energy change (ΔG°), were obtained by the van ‘t Hoff equation:
(9) ΔG=ΔH°−TΔS° where R is the gas constant (8.314 J mol^−1 K^−1), and T is the temperatures of fluorescence titration experiments (25, 31, and 37 °C). […] A similar study reported that the formation of the ECG–α-amylase complex was mainly driven by van der Waals and hydrogen bonds.

xanthine oxidase (XO) [5] = molecular target: T1, xanthine oxidase (XO); assay: Fluorescence microscopy imaging of XO; set-up: species or system bovine; settings: XO 1.0 μM; ECG 40.0 μM
Protocol: The free XO solution and the mixture of ECG and XO were prepared and incubated for 1h at room temperature. The appropriate amount of samples was placed on a microscope slide, and then the structural changes of XO induced by ECG were observed through a fluorescent inverted microscope with an excitation light of FBW (IX73, Olympus, Japan).

xanthine oxidase (XO) [6] = molecular target: T1, xanthine oxidase (XO); assay: Kinetic analysis of enzyme-catalyzed reaction (Lineweaver–Burk); format: biochemical, bovine
Excerpt: The same determination method of enzyme activity was used to conduct the inhibition kinetics analysis of ECG on XO. In the presence of a series of different concentrations of ECG, the concentration of XO or xanthine was changed to determine the catalytic rate, and then the inhibition type was ascertained by the Lineweaver-Burk plots in double reciprocal form. […] Km, Ki, and α are on behalf of the Michaelis-Menten constant, dissociation constant, and apparent coefficient, respectively.

[7] = O2− radical scavenging activity assay (PMS–NADH system, NBT); settings: ECG 45.0 μM
Protocol: NBT could be reduced to blue formazan by O2^− radical produced by the PMS–NADH system; thus, this method was used to evaluate the O2^− radical scavenging activity of ECG [33]. The reaction solutions were prepared by mixing NBT (55.0 μM), NADH (0.27 mM), and different concentrations of ECG, and then 0.2 mL PMS (0.155 mM) was added to initiate the reaction. After the samples were incubated for 15 min, the absorbance at 560 nm was measured. Ethanol was used instead of ECG as the blank group, and the values of decreasing percentage in absorbance were calculated to analyze the scavenging activity of ECG.

xanthine oxidase (XO) [8] = molecular target: T1, xanthine oxidase (XO); assay: Inhibition of O2− radical generated by XO (NBT); format: biochemical, bovine; settings: XO 0.7 μM
Protocol: The O2^− radicals generated during the catalytic process of XO could also be used to assess the antioxidant activity of ECG. The XO (0.70 μM) and different concentrations of ECG were mixed in Tris–HCl buffer and incubated at 37 °C for 30 min. Then, NBT (55.0 μM) and xanthine were added to the samples, respectively, and the absorbance of the mixture at 560 nm was recorded. A small amount of Triton X−100 (0.2%, v/v) was added for solubilization and the control group was equal volume ethanol.

[9] = previous study of the authors, read-out: IC50 for inhibiting XO activity
[10] = read-out: IC50 for inhibiting XO activity

T1 sequence (P80457 whole entry): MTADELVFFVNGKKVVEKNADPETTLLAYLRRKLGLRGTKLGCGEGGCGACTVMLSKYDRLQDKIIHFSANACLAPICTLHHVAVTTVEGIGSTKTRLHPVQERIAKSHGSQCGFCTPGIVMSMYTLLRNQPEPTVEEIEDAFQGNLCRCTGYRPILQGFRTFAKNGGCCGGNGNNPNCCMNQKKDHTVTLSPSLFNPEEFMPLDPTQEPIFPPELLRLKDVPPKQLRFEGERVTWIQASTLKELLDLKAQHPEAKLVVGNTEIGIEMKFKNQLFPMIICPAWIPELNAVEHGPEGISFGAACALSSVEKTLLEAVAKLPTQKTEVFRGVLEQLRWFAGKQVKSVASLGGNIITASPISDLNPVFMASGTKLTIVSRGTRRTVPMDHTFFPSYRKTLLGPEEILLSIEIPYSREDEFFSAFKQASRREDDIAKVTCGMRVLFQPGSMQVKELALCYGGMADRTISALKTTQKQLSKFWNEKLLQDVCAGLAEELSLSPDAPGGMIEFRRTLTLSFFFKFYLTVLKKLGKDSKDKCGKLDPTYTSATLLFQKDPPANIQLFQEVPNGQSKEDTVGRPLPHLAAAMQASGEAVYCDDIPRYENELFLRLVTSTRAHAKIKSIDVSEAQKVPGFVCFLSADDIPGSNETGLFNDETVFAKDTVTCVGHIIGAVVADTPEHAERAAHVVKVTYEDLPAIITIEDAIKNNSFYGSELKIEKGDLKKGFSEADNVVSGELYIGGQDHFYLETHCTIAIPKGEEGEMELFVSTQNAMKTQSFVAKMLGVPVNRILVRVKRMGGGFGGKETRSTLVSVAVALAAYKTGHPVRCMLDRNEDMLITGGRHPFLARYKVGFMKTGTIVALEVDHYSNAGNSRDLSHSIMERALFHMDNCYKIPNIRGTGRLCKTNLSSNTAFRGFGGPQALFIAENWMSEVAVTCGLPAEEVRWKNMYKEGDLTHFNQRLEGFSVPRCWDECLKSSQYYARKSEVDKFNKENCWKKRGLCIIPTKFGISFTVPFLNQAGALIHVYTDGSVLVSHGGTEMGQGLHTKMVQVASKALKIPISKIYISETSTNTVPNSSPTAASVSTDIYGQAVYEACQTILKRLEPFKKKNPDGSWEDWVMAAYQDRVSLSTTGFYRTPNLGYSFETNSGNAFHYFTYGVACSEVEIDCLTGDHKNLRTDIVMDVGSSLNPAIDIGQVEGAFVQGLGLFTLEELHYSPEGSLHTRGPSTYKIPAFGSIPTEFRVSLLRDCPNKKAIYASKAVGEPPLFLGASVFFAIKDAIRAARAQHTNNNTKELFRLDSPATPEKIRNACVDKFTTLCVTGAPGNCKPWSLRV

Compound: O=c1c(O)c(-c2ccc(O)c(O)c2)oc2cc(O)cc(O)c12 [quercetin]
- IC50 (XO; [9]): 7.23 µM

- IC50 (xanthine oxidase (XO) [1]; pH 7.4, XO 0.075 μM, xanthine 50.0 μM, read-out: IC50 for inhibiting XO activity): 19.3 ± 0.45 µM
- n values (xanthine oxidase (XO) [4]; 25, 31 and 37 °C): ~1
- Kq (quenching rate constant) (xanthine oxidase (XO) [4]; 25, 31 and 37 °C, compared with maximum scattering collision rate constant): > 2e+10 M⁻¹ s⁻¹
- Kd (xanthine oxidase (XO) [4]; 25, 31 and 37 °C, read-out: binding constant Ka, magnitude): ~100 µM
- Ksv (xanthine oxidase (XO) [4]; 298 K): 1.76 ± 0.02 ×10^4 L mol^−1
- n (number of binding sites) (xanthine oxidase (XO) [4]; 298 K): 0.91 ± 0.01
- ΔG° (xanthine oxidase (XO) [4]; 298 K): -5.813 ± 0.0956 kcal/mol
- Kd (xanthine oxidase (XO) [4]; 298 K, read-out: Ka (binding constant) (converted)): 54.9 µM
- Ksv (xanthine oxidase (XO) [4]; 304 K): 1.32 ± 0.03 ×10^4 L mol^−1
- n (number of binding sites) (xanthine oxidase (XO) [4]; 304 K): 0.95 ± 0.02
- ΔG° (xanthine oxidase (XO) [4]; 304 K): -5.81 ± 0.0837 kcal/mol
- Kd (xanthine oxidase (XO) [4]; 304 K, read-out: Ka (binding constant) (converted)): 66.2 µM
- Ksv (xanthine oxidase (XO) [4]; 310 K): 1.15 ± 0.01 ×10^4 L mol^−1
- n (number of binding sites) (xanthine oxidase (XO) [4]; 310 K): 0.87 ± 0.02
- ΔG° (xanthine oxidase (XO) [4]; 310 K): -5.805 ± 0.0669 kcal/mol
- Kd (xanthine oxidase (XO) [4]; 310 K, read-out: Ka (binding constant) (converted)): 81.3 µM
- ΔH° (xanthine oxidase (XO) [4]; van 't Hoff, 298–310 K): -5.987 ± 0.0478 kcal/mol
- ΔS° (xanthine oxidase (XO) [4]; van 't Hoff, 298–310 K): −2.44 ± 0.07 J mol^−1 K^−1
- inhibition type (xanthine oxidase (XO) [6]; Lineweaver–Burk plots): mixed inhibitor
- αKi (xanthine oxidase (XO) [6]; XO−xanthine complex): 82.4 ± 0.70 µM
- Ki (xanthine oxidase (XO) [6]; dissociation constant, free XO): 5.27 ± 0.24 µM
- reversibility of inhibition (xanthine oxidase (XO) [6]; plots of ν vs. [XO]): reversibly inhibited
- IC50 (xanthine oxidase (XO) [8]; read-out: dose at which relative inhibition rate of production of O2− radical reached 50%): 18.5 µM
- relative inhibition rate of generation of O2− radical from XO catalysis (final plateau) (xanthine oxidase (XO) [8]; xanthine 0.1, 0.2, 0.5 mM): 90%
Compound: O=C(O[C@@H]1Cc2c(O)cc(O)cc2O[C@@H]1c1ccc(O)c(O)c1)c1cc(O)c(O)c(O)c1 [ECG, Epicatechin gallate]
- inhibition type on polyphenoloxidase (polyphenoloxidase): mixed inhibitory effect
- IC50 (XO; ref 12 (Yuan et al.), read-out: IC50 inhibiting XO): 0.26 µM
- activity of XO at high ECG concentration (xanthine oxidase (XO) [1]; ECG 300 μM): almost completely inhibited
- Random Coil content of XO (xanthine oxidase (XO) [2]; [ECG]:[XO] 10:1): 25.12 ± 0.69%
- α-Helix content of XO (xanthine oxidase (XO) [2]; [ECG]:[XO] 10:1): 10.83 ± 0.51%
- β-Sheet content of XO (xanthine oxidase (XO) [2]; [ECG]:[XO] 10:1): 42.51 ± 0.41%
- β-Turn content of XO (xanthine oxidase (XO) [2]; [ECG]:[XO] 10:1): 21.65 ± 0.94%
- Random Coil content of XO (xanthine oxidase (XO) [2]; [ECG]:[XO] 20:1): 24.03 ± 0.31%
- α-Helix content of XO (xanthine oxidase (XO) [2]; [ECG]:[XO] 20:1): 10.96 ± 0.62%
- β-Sheet content of XO (xanthine oxidase (XO) [2]; [ECG]:[XO] 20:1): 43.41 ± 0.74%
- β-Turn content of XO (xanthine oxidase (XO) [2]; [ECG]:[XO] 20:1): 21.59 ± 0.13%
- Random Coil content of XO (xanthine oxidase (XO) [2]; [ECG]:[XO] 40:1): 22.51 ± 0.24%
- α-Helix content of XO (xanthine oxidase (XO) [2]; [ECG]:[XO] 40:1): 11.83 ± 0.93%
- β-Sheet content of XO (xanthine oxidase (XO) [2]; [ECG]:[XO] 40:1): 45.02 ± 0.22%
- β-Turn content of XO (xanthine oxidase (XO) [2]; [ECG]:[XO] 40:1): 21.39 ± 0.25%
- DPPH radical scavenged [3]: 90%
- decrease of 3D fluorescence intensity of XO peak 1 (λex/λem = 280/340 nm) (xanthine oxidase (XO) [4]; XO 1.0 μM, ECG 15.0 μM): 34.36%
- decrease of 3D fluorescence intensity of XO peak 2 (λex/λem = 230/335 nm) (xanthine oxidase (XO) [4]; XO 1.0 μM, ECG 15.0 μM): 47.59%
- average area of green bright spots of XO with ECG (xanthine oxidase (XO) [5]): 172.31 μm^2
- scavenging rate of O2− radical generated by PMS–NADH system [7]: 55.64%

Compound: O=C(/C=C/c1ccc(O)c(O)c1)O[C@@H]1C[C@](O)(C(=O)O)C[C@@H](O)[C@H]1O [chlorogenic acid]
- IC50 (XO; [10]): 6490 µM

Compound: O=c1c(O)c(-c2ccc(O)cc2)oc2cc(O)cc(O)c12 [kaempferol]
- inhibition manner on XO (XO; previous study of the authors): reversibly inhibited XO activity in a competitive manner

Compound: O=C(O)/C=C/c1ccc(O)c(O)c1 [caffeic acid]
- IC50 (XO; [10]): 7160 µM

Compound: O=c1c(O)c(-c2cc(O)c(O)c(O)c2)oc2cc(O)cc(O)c12 [myricetin]
- IC50 (XO; [9]): 8.66 µM
